Laboratory results taken from PMC2650103 (Journal of medicinal chemistry, 2008).
Read-outs that look alike come from different tables or passages of the source.

Assays:
[1] = test system: vaccinia virus WR in BS-C-1 cells; assay: microbe, parasite or virus in culture; type: cell-based; details: Orthopoxvirus vaccinia, BSC-1, 20 h, read-out: Cell Prot EC50
[2] = test system: vaccinia virus WR in BS-C-1 cells; type: cell-based
[3] = cited from earlier work
BS-C-1 cells = details: African green monkey
[4] = Solubility in cell growth medium by light scattering; details: at the EC50 / over the range of concentrations used in the activity assays
[5] = test system: vaccinia virus WR in BS-C-1 cells; assay: microbe, parasite or virus in culture; type: cell-based; details: Orthopoxvirus vaccinia, BSC-1, 20 h, read-out: Plaque Red EC50
[6] = test system: multiple orthopoxviruses, including two strains of variola virus; details: cited from earlier work

| Compound | EC50 [1] | Trapped by dsDNA [2] | Toxicity on intravenous administration [3] | Tox 72 h TC50 (BS-C-1 cells) | Tox 120 h TC50 (BS-C-1 cells) | Solubility in cell growth medium [4] | EC50 [5] | Growth of orthopoxviruses in cell cultures [6] |
| --- | --- | --- | --- | --- | --- | --- | --- | --- |
| Nc1ccn(C[C@@H](CO)OCP(=O)(O)O)c(=O)n1.O.O [CDV, (S)-1-(3-hydroxy-2-phosphonylmethoxypropyl)cytosine, reference compound] | 132 µM | No | nephrotoxicity | >500 ∞M | 300 ∞M | – | – | – |
| COC(=O)c1cccc2c1-c1ccccc1/C2=N\O [Compound 1] | – | No | – | – | 20 ∞M | – | – | – |
| CCOC(=O)c1c(NC(=O)/C=C/C(=O)O)sc(C)c1-c1ccccc1 [Compound 2] | – | No | – | – | – | – | – | – |
| CCn1c2ccccc2c2ccc(/C=N/n3cnnc3)cc21 [Compound 3] | – | No | – | 36 ∞M | 3 ∞M | – | – | – |
| Cc1csc2c(N3CCN(C(=O)NC(C)(C)C)CC3)ncnc12 [Compound 4] | – | No | – | – | 40 ∞M | – | – | – |
| CCNc1nc(SCc2ccc(Cl)cc2)nc2sc3c(c12)CCN(C)C3 [Compound 5] | – | No | – | – | 5 ∞M | – | – | – |
| Cc1cc(/N=C/c2cc(Cl)cc(Cl)c2O)no1 [Compound 6] | – | No | – | 50 ∞M | 20 ∞M | – | – | – |
| Cc1c(/N=C/c2cc(Br)cc(Br)c2O)cccc1C(=O)O [Compound 7] | – | No | – | 38 ∞M | 20 ∞M | – | – | – |
| Cc1cc(OC(=O)c2ccco2)nc(SCc2c(Cl)cccc2Cl)n1 [Compound 8] | – | No | – | >100 ∞M | >100 ∞M | just slightly insoluble | – | – |
| O=C(Nc1ccccc1C(=O)O)OCC1c2ccccc2-c2ccccc21 [Compound 9] | 104 µM | No | – | 40 ∞M | 20 ∞M | – | – | – |
| CCS(=O)(=O)N1CCN=C1SCc1ccc(Cl)cc1Cl [Compound 10] | – | No | – | – | – | just slightly insoluble | – | – |
| Cc1ccc2c(Sc3ccc(Cl)cc3)c(C(=O)O)[nH]c2c1 [Compound 11] | 130 µM | No | – | 174 ∞M | 120 ∞M | – | – | – |
| N=C1S/C(=C/c2ccco2)C(=O)N1c1nccs1 [Compound 12] | – | No | – | >100 ∞M | 50 ∞M | just slightly insoluble | – | – |
| O=C(O)Cn1c2ccc(Cl)cc2c2nc3ccccc3nc21 [Compound 13] | – | No | – | 13 ∞M | 30 ∞M | just slightly insoluble | – | – |
| N=C1/C(=C/c2coc3ccccc3c2=O)C(=O)N=C2SC=NN12 [Compound 14] | 188 µM | No | – | >200 ∞M | 50 ∞M | – | 150 µM | – |
| CC(=O)n1c2ccccc2c2nc(C)sc21 [Compound 15] | 236 µM | No | – | >200 ∞M | 75 ∞M | – | – | – |
| O=C1/C(=C/C2CCCO2)CC/C1=C\C1CCCO1 (stereo not drawn) [Compound 16] | – | No | – | >100 ∞M | 50 ∞M | just slightly insoluble | – | – |
| O=C(NN1C(=O)C2C3C=CC(C4CC34)C2C1=O)c1ccc(C(F)(F)F)cc1 (stereo not drawn) [Compound 30, 4-trifluoromethyl-N-(3,3a,4,4a,5,5a,6,6a-octahydro-1,3-dioxo-4,6-ethenocycloprop[f]isoindol-2(1H)-yl)-benzamide] | – | – | – | – | – | – | – | inhibit the growth |
